According to patent publication US6251882A, “Alkyl ketones as potent anti-cancer agents” (Parker Hughes Institute, priority 1999, dated 2001):

Tests used:
[1] = tested on: MDA-MB-231 breast cancer cells; assay: Adhesion assay to ECM proteins, MDA-MB-231; format: cell-based, human; settings: laminin, fibronectin or type IV collagen; 16 hours (FIG. 6)
Procedure: (§1) A human brain tumor cell line derived from an adult patient with glioblastoma, U-373 MG (Cat. #HTB-17) and MDA-MB-231 breast cancer cells (Cat. #HTB-26) were obtained from American Type Culture Collection (ATCC, Manassas, Va.) and maintained in liquid culture using DMEM supplemented with 10% fetal bovine serum and antibiotics. Fibroblast conditioned medium was used as a source of chemoattractant in vitro invasion assays. Conditioned medium was prepared as described previously (Albini, et al., 1987, Cancer Res., 47:3239-3245). […]
(§2) In adhesion assays, cells were centrifuged, washed twice with serum-free DMEM, counted and resuspended in serum-free DMEM to a final concentration of 2.5×10^5 cells/ml. […] The adherent fraction was quantitated using MTT (3-[4,5-dimethylthiazol-2-yl]-2,5-diphenyltetrazolium bromide) assays. […] The absorbance of each well was measured in a microplate reader (Labsystems) at […] and a reference wavelength of 690 nm. […] The adherent fraction of cells treated with HI-131 was compared to the DMSO-treated control cells and the percent adhesion relative to the control was determined.
(§3) Each treatment condition was evaluated in duplicate in 3 independent experiments. The IC50 values were calculated by non-linear regression analysis.

Nalm-6 (B-lineage ALL) = assay: MTT cytotoxicity assay, Nalm-6; format: cell-based; settings: Homo sapiens, 24-36 hours at 37° C., 0.1 to 250 μM
Procedure: Cytotoxicity of various compounds against tumor cells was performed using the MTT (3-[4,5-[…]]-2,5-diphenyl tetrazolium bromide) assay (Boehringer Mannheim Corp., Indianapolis, Ind.). Unless otherwise specified, all cell lines were obtained from the American Type Culture Collection (ATCC). Briefly, exponentially growing cells were seeded into a 96-well plate at a density of 2.5×10^4 cells/well and incubated for 36 hours at 37° C. prior to drug exposure. On the day of treatment, culture medium was carefully aspirated from the wells and replaced with fresh medium containing the indicated compound at concentrations ranging from 0.1 to 250 μM. Triplicate wells were used for each treatment.
Human leukemic cell lines (NALM-6, MOLT-3) glioblastoma cells (U373) and human breast tumor cell lines (BT20 and MDA-MB-231) were obtained from the American Type Culture Collection and maintained as a continuous cell line in Dulbecco's modified Eagles's medium supplemented with 10% fetal bovine serum and antibiotics.
The cells were incubated with the various compounds for 24-36 hours at 37° C. in a humidified 5% CO2 atmosphere. To each well, 10 μl of MTT (0.5 mg/ml final concentration) was added and the plates were incubated at 37° C. for 4 hours to allow MTT to form formazan crystals by reacting with metabolically active cells. The formazan crystals were solubilized overnight at 37° C. in a solution containing 10% SDS in 0.01 M HCl. The absorbence of each well was measured in a microplate reader (Labsystems) at 540 nm and a reference wavelength of […]. To translate the OD540 values into the number of live cells in each well, the OD540 values were compared to those on standard OD540 --versus--cell number curves generated for each cell line. The percent survival was calculated using the formula: [formula]
The IC50 values were calculated by non-linear regression analysis and are shown below in Tables 1-6.

U373 glioblastoma cells = assay: Adhesion assay to ECM proteins, U373; format: cell-based, human; settings: laminin, fibronectin or type IV collagen; 16 hours (FIG. 7)
Procedure: as §1, §2, §3

NALM-6 cells = assay: Apoptosis induction, NALM-6 cells (in situ TUNNEL, confocal microscopy); format: cell-based, human
Procedure: The ability of HI-131 to induce apoptosis cells was evaluated in human leukemia in NALM-6 cells and primary leukemic cells from 2 patients. Cells were treated with 50 μM compound HI-131 for 24 hours. After incubation, the cells were harvested and analyzed for apoptosis by in situ TUNNEL analysis and confocal laser scanning microscopy as described in Sudbeck et al., 1999, Clin Cancer Res., 5:1589-82. Controls were treated with vehicle alone.
Induction of apoptosis was further evaluated in primary leukemic cells and established NALM-6 and MOLT-3 cell lines following treatment with HI-131.

With `CCCCCCCCCCCCSC[C@H](NC(C)=O)C(=O)CCl` [HI-131, N-Ac-S-dodecyl-Cys chloromethyl ketone] the “loss of adhesion, MDA-MB-231” value [1] was “dose-dependent loss of adhesion”, the IC50 (Nalm-6 (B-lineage ALL)) was 2 µM and the “loss of adhesion, U373” value (U373 glioblastoma cells) was “dose-dependent loss of adhesion”. For the same compound, the “apoptosis induction (TUNNEL/confocal), NALM-6” value (NALM-6 cells; 50 μM, 24 hours) was “greatly induced apoptosis” and the fold induction at 50 µM (NALM-6 cells; Homo sapiens, NALM-6, 24 h, vs vehicle control (FIG. 3)) was about 20.
